Measurements reported in ChEMBL document CHEMBL1201862, “PubChem BioAssay data set” (2004).
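Results reflect a 48-hour exposure of cells in 96-well plates to compound at five concentrations. At the GI50, growth is halved.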 The source made the active and inactive calls. No stated cut-off is given here; in the data, active = GI50 up to about 1.1 µM and inactive = higher.

Assays:
Test in all cases: inhibition of tumour cell growth, NCI panel, 48 h
A498 = system: A498
ACHN = system: ACHN
CCRF-CEM = system: CCRF-CEM
COLO 205 = system: COLO 205
DMS-273 = system: DMS-273
HCT-116 = system: HCT-116
KM12 = system: KM12
Malme-3M = system: Malme-3M
NCI-H23 = system: NCI-H23
OVCAR-5 = system: OVCAR-5
OVCAR-8 = system: OVCAR-8
RPMI-8226 = system: RPMI-8226
SF-295 = system: SF-295
SF-539 = system: SF-539
SK-MEL-28 = system: SK-MEL-28
TK-10 = system: TK-10
UACC-62 = system: UACC-62
HCC 2998 = system: HCC 2998
BT-549 = system: BT-549
MDA-N = system: MDA-N

| SMILES | GI50 (A498) | GI50 (ACHN) | GI50 (CCRF-CEM) | GI50 (COLO 205) | GI50 (DMS-273) | GI50 (HCT-116) | GI50 (KM12) | GI50 (Malme-3M) | GI50 (NCI-H23) | GI50 (OVCAR-5) | GI50 (OVCAR-8) | GI50 (RPMI-8226) | GI50 (SF-295) | GI50 (SF-539) | GI50 (SK-MEL-28) | GI50 (TK-10) | GI50 (UACC-62) | GI50 (HCC 2998) | GI50 (BT-549) | GI50 (MDA-N) |
| --- | --- | --- | --- | --- | --- | --- | --- | --- | --- | --- | --- | --- | --- | --- | --- | --- | --- | --- | --- | --- |
| COc1ccc(C2S/C(=C\c3cccc(OC)c3)C(=O)N2NC(=O)Cc2ccccc2)cc1 (stereo not drawn) | > 100 µM (inactive) | > 100 µM (inactive) | > 100 µM (inactive) | > 100 µM (inactive) | > 100 µM (inactive) | > 100 µM (inactive) | > 100 µM (inactive) | > 100 µM (inactive) | > 100 µM (inactive) | > 100 µM (inactive) | > 100 µM (inactive) | > 100 µM (inactive) | > 100 µM (inactive) | > 100 µM (inactive) | > 100 µM (inactive) | > 100 µM (inactive) | > 100 µM (inactive) |  |  |  |
| CC(=O)NC1=C(NCCN(C)C)C(=O)c2ccccc2C1=O |  | 16.9 µM (inactive) | 15.4 µM (inactive) | 9.95 µM (inactive) | 11.7 µM (inactive) | 8.34 µM (inactive) | 15.8 µM (inactive) | 7.62 µM (inactive) | 11.5 µM (inactive) |  | 11.3 µM (inactive) |  | 15.2 µM (inactive) | 11.7 µM (inactive) | > 50 µM (inactive) | 27.8 µM (inactive) | 10.5 µM (inactive) | 14.9 µM (inactive) |  |  |
| CC(C)c1nc2cc(C(F)(F)F)ccc2[nH]c1=O | 61.9 µM (inactive) | 72.1 µM (inactive) | 0.361 µM (active) | > 100 µM (inactive) |  | 62.2 µM (inactive) | > 100 µM (inactive) | > 100 µM (inactive) | > 100 µM (inactive) | > 100 µM (inactive) | > 100 µM (inactive) | > 100 µM (inactive) | > 100 µM (inactive) | > 100 µM (inactive) | > 100 µM (inactive) | 70.6 µM (inactive) | 29.8 µM (inactive) | > 100 µM (inactive) | > 100 µM (inactive) | > 100 µM (inactive) |
| CCOC(=O)c1c(N2CCOCC2)[nH]c(=O)c(C(c2ccc(OC)cc2)c2c(O)c(C(=O)OCC)c(N3CCOCC3)[nH]c2=O)c1O | > 100 µM (inactive) | > 100 µM (inactive) | > 100 µM (inactive) | > 100 µM (inactive) |  | > 100 µM (inactive) | > 100 µM (inactive) | > 100 µM (inactive) | > 100 µM (inactive) | > 100 µM (inactive) | > 100 µM (inactive) | > 100 µM (inactive) | > 100 µM (inactive) | > 100 µM (inactive) | > 100 µM (inactive) | > 100 µM (inactive) | > 100 µM (inactive) | > 100 µM (inactive) | > 100 µM (inactive) | > 100 µM (inactive) |
| CN(C)c1ccc(/C=C2\CCc3ccccc3C2=O)cc1Br |  | > 100 µM (inactive) | 36 µM (inactive) | 68.9 µM (inactive) | 34.7 µM (inactive) | 37.3 µM (inactive) | 38.5 µM (inactive) | 42.8 µM (inactive) | 68.7 µM (inactive) | > 100 µM (inactive) | 41.1 µM (inactive) | 24.8 µM (inactive) | > 100 µM (inactive) | > 100 µM (inactive) | 71.1 µM (inactive) | > 100 µM (inactive) | 40.2 µM (inactive) | > 100 µM (inactive) |  |  |
| O=C(O)CC1NCc2cc3ccccc3nc21 (stereo not drawn) | > 100 µM (inactive) | > 100 µM (inactive) | > 100 µM (inactive) | > 100 µM (inactive) |  | > 100 µM (inactive) | > 100 µM (inactive) | > 100 µM (inactive) | > 100 µM (inactive) | > 100 µM (inactive) | > 100 µM (inactive) | > 100 µM (inactive) | > 100 µM (inactive) | > 100 µM (inactive) | > 100 µM (inactive) | > 100 µM (inactive) | > 100 µM (inactive) | > 100 µM (inactive) | > 100 µM (inactive) | > 100 µM (inactive) |
| COC(=O)CC(CNC(=O)OCc1ccccc1)OCc1ccc(OC)cc1 (stereo not drawn) | > 100 µM (inactive) | > 100 µM (inactive) | > 100 µM (inactive) | > 100 µM (inactive) |  | > 100 µM (inactive) | > 100 µM (inactive) | > 100 µM (inactive) | 67.5 µM (inactive) | > 100 µM (inactive) | > 100 µM (inactive) | > 100 µM (inactive) | > 100 µM (inactive) | > 100 µM (inactive) | > 100 µM (inactive) | > 100 µM (inactive) | > 100 µM (inactive) | > 100 µM (inactive) | 34 µM (inactive) | > 100 µM (inactive) |
| CC[N+](CC)(CCNCC(N)=O)CC(N)=O | > 10 µM (inactive) | > 10 µM (inactive) | > 10 µM (inactive) | > 10 µM (inactive) |  | > 10 µM (inactive) | > 10 µM (inactive) | > 10 µM (inactive) | > 10 µM (inactive) | > 10 µM (inactive) | > 10 µM (inactive) | > 10 µM (inactive) | > 10 µM (inactive) | > 10 µM (inactive) | > 10 µM (inactive) | > 10 µM (inactive) | > 10 µM (inactive) | > 10 µM (inactive) | > 10 µM (inactive) | > 10 µM (inactive) |
| CC1=NN(c2nc(N)nc(/C(C#N)=C\c3cccc([N+](=O)[O-])c3)n2)C(C)(C)C1 | > 23 µM (inactive) | 15.8 µM (inactive) | 10.8 µM (inactive) | 14.9 µM (inactive) |  | 10.4 µM (inactive) | 14.9 µM (inactive) | 16.9 µM (inactive) | 10.1 µM (inactive) | 24.4 µM (inactive) | 7.29 µM (inactive) | 5.65 µM (inactive) | 10.2 µM (inactive) | 8.2 µM (inactive) | 19.1 µM (inactive) | 15.7 µM (inactive) | 19.6 µM (inactive) | 12.2 µM (inactive) | > 20.7 µM (inactive) | 13.2 µM (inactive) |
| Cc1c2n(c(=O)[nH]c1=O)C1OC(CO)C(O2)C1N=[N+]=[N-] (stereo not drawn) | 78 µM (inactive) | > 100 µM (inactive) | > 100 µM (inactive) | > 100 µM (inactive) | > 100 µM (inactive) | > 100 µM (inactive) | > 100 µM (inactive) |  | > 100 µM (inactive) |  | > 100 µM (inactive) | > 100 µM (inactive) | > 100 µM (inactive) | > 100 µM (inactive) | > 100 µM (inactive) | > 100 µM (inactive) | > 100 µM (inactive) |  |  |  |
| CSCCC(N)C(=O)NCCNc1ccc(NCCNC(=O)C(N)CCSC)c2c1C(=O)c1ccccc1C2=O (stereo not drawn) | 1.72 µM (inactive) | 0.456 µM (active) | 0.528 µM (active) | 1.16 µM (inactive) |  | 0.424 µM (active) | 1.27 µM (inactive) | 1.89 µM (inactive) | 1.05 µM (active) | 1.99 µM (inactive) | 0.441 µM (active) | 1.35 µM (inactive) | 1.57 µM (inactive) | 0.973 µM (active) | 1.75 µM (inactive) | 2.09 µM (inactive) | 1.23 µM (inactive) | 0.716 µM (active) | 1.48 µM (inactive) | 1.69 µM (inactive) |
| Cc1cnc2c(C)ccc([N+](=O)[O-])c2c1NCCCN(C)C |  | > 100 µM (inactive) | > 100 µM (inactive) | > 100 µM (inactive) | > 100 µM (inactive) | > 100 µM (inactive) | > 100 µM (inactive) | 73.6 µM (inactive) | 31.5 µM (inactive) | > 100 µM (inactive) | > 100 µM (inactive) | > 100 µM (inactive) | > 100 µM (inactive) | > 100 µM (inactive) | > 100 µM (inactive) | > 100 µM (inactive) |  | > 100 µM (inactive) |  |  |
| COC(=O)c1sc2c(c1C(=O)OC)/C(=N/c1ccc(OC)cc1)S/C2=N\c1ccc(OC)cc1 | 1.65 µM (inactive) | 1.24 µM (inactive) | 0.104 µM (active) | 0.7 µM (active) |  | 0.451 µM (active) | 1.22 µM (inactive) | 1.74 µM (inactive) | 1.57 µM (inactive) | 1.73 µM (inactive) | 0.944 µM (active) | 0.275 µM (active) | 1.68 µM (inactive) | 0.274 µM (active) | 1.37 µM (inactive) | 1.62 µM (inactive) | 1.45 µM (inactive) | 1.69 µM (inactive) | 1.54 µM (inactive) | 1.15 µM (inactive) |
| COc1c(C)cc(O)cc1C=O |  | > 100 µM (inactive) | > 100 µM (inactive) | > 100 µM (inactive) | > 100 µM (inactive) |  | 93.3 µM (inactive) | > 100 µM (inactive) |  | > 100 µM (inactive) | > 100 µM (inactive) | > 100 µM (inactive) | > 100 µM (inactive) | > 100 µM (inactive) | > 100 µM (inactive) | > 100 µM (inactive) | > 100 µM (inactive) | > 100 µM (inactive) |  |  |
| Cc1ccc2c(n1)C(=O)c1ccccc1C2=O | 31.6 µM (inactive) | 31.8 µM (inactive) | 37.7 µM (inactive) | 16.9 µM (inactive) |  | 22.9 µM (inactive) | 30.1 µM (inactive) | 9.35 µM (inactive) | 14.7 µM (inactive) | 21.9 µM (inactive) | 26.7 µM (inactive) | 32.6 µM (inactive) | 25.8 µM (inactive) | > 56.5 µM (inactive) | 51.5 µM (inactive) | 71.3 µM (inactive) | 20.5 µM (inactive) | 28.8 µM (inactive) | 32.4 µM (inactive) | > 45.6 µM (inactive) |
| COC(=O)c1c(C(=O)OC)c2cc(C(=O)c3ccccc3)ccn2c1Cl |  | 43.8 µM (inactive) | 29.7 µM (inactive) | 35.8 µM (inactive) | 27.6 µM (inactive) | 39.6 µM (inactive) | 24 µM (inactive) | 52.7 µM (inactive) | 23.1 µM (inactive) | 48.4 µM (inactive) | 30 µM (inactive) | 16.3 µM (inactive) | 26.4 µM (inactive) | 48.6 µM (inactive) | 35.8 µM (inactive) | 67.1 µM (inactive) | 24.9 µM (inactive) | > 100 µM (inactive) |  |  |
